Reference: PMC7893776, “Selecting an anti-malarial clinical candidate from two potent dihydroisoquinolones” (Malaria Journal, 2021)
Converted amounts (≈) assume the structure as drawn. Values belong to the molecule of their own block, whether it stands above or below them.

Tests used:
[1] = LogP, Gemini Profiler titration; type: physicochemical
Procedure: LogP was measured using a Gemini Profiler instrument (pION Inc., Billerica, MA). 1–2 mg of compound was dissolved in octanol (0.5 mL) in a test tube. The test tube was purged with argon and a magnetic stir bar was added. The solution was treated with aqueous KCl (2.5 mL, 0.15 M) and stirred for 10 min. The pH was adjusted to 2 by addition of aqueous HCl (0.5 M). The resulting solution was titrated by adding aqueous KOH (0.5 M) in small aliquots (controlled by the Gemini Profiler software), until the pH reached 12. The volume of each addition and the corresponding pH of the test solution were recorded. Data were processed using pS software. The data points were fitted to a Bjerrum plot to achieve the best GOF (goodness of fitness) and a logP value was obtained. All measurements were conducted in triplicate.

rat plasma proteins = assay: Plasma protein binding (RED), rat; type: in vitro ADME; conditions: average of 20, 4, 0.8 µM
Procedure: A Rapid Equilibrium Dialysis (RED) Plate (Thermo Scientific, catalog #, PI-90007) was used to determine the percentage of compound binding to plasma proteins. The positive control for this experiment was propranolol-HCl (10 mM in DMSO) and the internal standard was warfarin (2 µM in methanol). 10 mM stocks of compound in DMSO were diluted with DMSO acetonitrile (1:4, v:v) to three different intermediate concentrations: high (2 mM), medium (0.4 mM) and low (0.08 mM). A 10 mM stock of propranolol in DMSO was diluted to 0.4 mM concentration in DMSO:acetonitrile (1:4 v:v). In 16 Eppendorf tubes, the control (10 µL) or each of three compound dilutions (10 µL) were each added to separate aliquots of mouse, rat, dog, and human plasma (990 µL). In the RED plate, potassium phosphate buffer (500 µL, 0.1 M, pH 7.4, 37 °C) was placed in every white well and each plasma/compound mixture was added to each of 3 red wells. […] The compounds and internal standard were detected by selected ion recording (SIR). Using the peak area ratio of compound to warfarin from the SIR spectra, the percentage of free compound [1] and bound compound [2] were calculated using the following equations: (1) % free = (concentration buffer chamber/concentration plasma chamber)*100, and (2) % bound = 100 − % free.

[2] = Rat single oral dose toxicology / toxicokinetic study; type: in vivo, male Sprague Dawley rats
Procedure: The high dose levels of both compounds (50, 100, 200 mg/kg, PO, (+)-SJ733/311) were also independently tested by SRI, with a single oral gavage administration. Blood (through jugular vein) and urine were collected at time points up to 72 and 24 h post dose, respectively. Supernatant plasma was removed following centrifugation and stored frozen (− 70 °C) until LC–MS analysis. For toxicology studies, male Sprague Dawley rats were administered 50, 100, 250, 500, or 750 mg/kg of (r)-SJ733 or (r)-SJ311 by oral gavage (one dose per animal). Body weights were recorded on Day 1 prior to dose administration and on Day 4. Blood samples (400 µL) were collected at 4 and 24 h post drug administration from the retro-orbital sinus. Potassium EDTA treated plasma was collected and kept frozen at -70 °C for bioanalytical analysis. Rat samples from the toxicokinetic study at SRI were analyzed at SJCRH using the method described above. The calibration range was from 47 to 26,000 ng/mL for plasma.

Thermodynamic solubility = type: physicochemical; conditions: for solubility thermodynamic: 37 °C, thermodynamic from solid
Procedure: Solubility was also evaluated in fasted (FaSSIF-V2) or fed (FeSSIF-V2) state simulated intestinal fluids. These media contain lipolysis breakdown products (glycerol monooleate and oleic acid) in addition to bile salt (sodium taurocholate) and phospholipid (lecithin) and were buffered to simulate approximate pH conditions found in the fasted (pH 6.5) or fed (pH 5.8) state small intestine. Control media (blank FaSSIF-V2 and FeSSIF-V2 buffers) lacking bile salt, phospholipid and lipolysis products were also investigated.
Compounds were weighed into individual screw cap polypropylene tubes and aqueous buffer, 0.1 N HCl, or simulated intestinal fluid added to provide a compound concentration of between 700 and 5000 μg/mL. Samples were vortexed, placed in a 37 °C incubator, and mixed on an orbital shaker (IKA® VXR basic Vibrax® orbital shaker) set at 600 rpm. Samples were regularly examined to ensure excess solid was present. Sampling was conducted after 1, 4, 6, and 24 h by centrifuging each sample at 10,000 rpm for 3 min, transferring a 200 µL aliquot into fresh Eppendorf tubes, and centrifuging again at 10,000 rpm for 3 min. Duplicate aliquots of the final supernatant were removed and diluted to an appropriate analytical concentration in 50% aqueous methanol prior to analysis by HPLC. HPLC analysis was conducted on a Waters 2695 HPLC system coupled to a Waters 2487 dual absorbance wavelength detector, analyzing at 254 nm. A Phenomenex Luna C18(2) column (3 µm, 50 × 2.0 mm i.d.) was used for analysis, with the column temperature maintained at 40 °C. Concentrations were quantified by comparison to a calibration curve prepared over the concentration range in 50% aqueous methanol. The mobile phase consisted of water, methanol, and 1% aqueous formic acid. Separations were conducted using a flow rate of 0.4 mL/min and an injection volume of 5 µL. Processed samples were maintained in the autosampler at a temperature of 10 °C.

Structure (SMILES): N#Cc1cc(NC(=O)C2c3ccccc3C(=O)N(CC(F)(F)F)C2c2cn[nH]c2)ccc1F (racemic) [(r)-SJ311]
LogP [1]: 1.24 ± 0.28 (logP( +)) | % bound (rat plasma proteins): 91.0 ± 0.1% | clinical observation ([2]; rats, 100 and 500 mg/kg groups, single oral gavage): Ruffled fur

Structure (SMILES): N#Cc1cc(NC(=O)C2c3ccccc3C(=O)N(CC(F)(F)F)C2c2cccnc2)ccc1F (racemic) [(r)-SJ733]
LogP [1]: 2.95 ± 0.03 (logP( +)) | % bound (rat plasma proteins): 90.0 ± 1.7%

solubility thermodynamic (Thermodynamic solubility; 0.1 N HCl, pH 1, simulated gastric fluid, strongly acidic conditions): > 3 mg/mL | solubility thermodynamic (Thermodynamic solubility; aqueous buffer, pH 7.4, 6.5, and 5.8 aqueous buffers): 81 to 237 µM
Structure (SMILES): N#Cc1cc(NC(=O)[C@H]2c3ccccc3C(=O)N(CC(F)(F)F)[C@@H]2c2cccnc2)ccc1F (racemic) [SJ733]
AUCinf at the highest event free dose ([2]; rat): over 217 µM h | adverse events ([2]; rat, at any dose): No adverse events | provable therapeutic window ([2]; rat, in vivo): above 40

Solubility (Thermodynamic solubility; 0.1 N HCl pH 1, 37°C, 1 h): 6817 µM (≈ 3190 µg/mL) | Solubility (Thermodynamic solubility; 0.1 N HCl pH 1, 37°C, 4 h): 7321 µM (≈ 3430 µg/mL) | Solubility (Thermodynamic solubility; 0.1 N HCl pH 1, 37°C, 6 h): 7376 µM (≈ 3450 µg/mL) | Solubility (Thermodynamic solubility; 0.1 N HCl pH 1, 37°C, 24 h): 7891 µM (≈ 3700 µg/mL) | Solubility (Thermodynamic solubility; FaSSIF blank pH 6.5, 37°C, 1 h): 81 µM (≈ 37.9 µg/mL) | Solubility (Thermodynamic solubility; FaSSIF blank pH 6.5, 37°C, 4 h): 92 µM (≈ 43.1 µg/mL) | Solubility (Thermodynamic solubility; FaSSIF blank pH 6.5, 37°C, 6 h): 96 µM (≈ 45 µg/mL) | Solubility (Thermodynamic solubility; FaSSIF blank pH 6.5, 37°C, 24 h): 100 µM (≈ 46.8 µg/mL) | Solubility (Thermodynamic solubility; FaSSIF-V2 pH 6.5, 37°C, 1 h): 199 µM (≈ 93.2 µg/mL) | Solubility (Thermodynamic solubility; FaSSIF-V2 pH 6.5, 37°C, 4 h): 216 µM (≈ 101 µg/mL) | Solubility (Thermodynamic solubility; FaSSIF-V2 pH 6.5, 37°C, 24 h): 207 µM (≈ 97 µg/mL) | Solubility (Thermodynamic solubility; FeSSIF blank pH 5.8, 37°C, 1 h): 83 µM (≈ 38.9 µg/mL) | Solubility (Thermodynamic solubility; FeSSIF blank pH 5.8, 37°C, 4 h): 88 µM (≈ 41.2 µg/mL) | Solubility (Thermodynamic solubility; FeSSIF blank pH 5.8, 37°C, 6 h): 100 µM (≈ 46.8 µg/mL) | Solubility (Thermodynamic solubility; FeSSIF blank pH 5.8, 37°C, 24 h): 107 µM (≈ 50.1 µg/mL) | Solubility (Thermodynamic solubility; FeSSIF-V2 pH 5.8, 37°C, 1 h): 237 µM (≈ 111 µg/mL) | Solubility (Thermodynamic solubility; FeSSIF-V2 pH 5.8, 37°C, 4 h): 250 µM (≈ 117 µg/mL) | Solubility (Thermodynamic solubility; FeSSIF-V2 pH 5.8, 37°C, 24 h): 248 µM (≈ 116 µg/mL) | Solubility (Thermodynamic solubility; Phosphate buffer pH 7.4, 37°C, 1 h): 207 µM (≈ 97 µg/mL) | Solubility (Thermodynamic solubility; Phosphate buffer pH 7.4, 37°C, 4 h): 250 µM (≈ 117 µg/mL) | Solubility (Thermodynamic solubility; Phosphate buffer pH 7.4, 37°C, 24 h): 250 µM (≈ 117 µg/mL)
Structure (SMILES): N#Cc1cc(NC(=O)[C@H]2c3ccccc3C(=O)N(CC(F)(F)F)[C@@H]2c2cccnc2)ccc1F [(+)-SJ733]
